From patent US20090099167A1, “Organic compounds” (Novartis Institutes for Biomedical Research, priority 2004, published 2009)

How the values were obtained:
c-Abl kinase = target: T1, c-Abl kinase (Homo sapiens, UniProt P00519); assay: c-Abl protein-tyrosine kinase filter binding assay; assay type: biochemical
T1 construct: The His-tagged kinase domain of c-Abl is cloned and expressed in the baculovirus/Sf9 system; His; made in house; host or cells: Sf9 (baculovirus)
T1 sequence (P00519 242-493 limits assumed): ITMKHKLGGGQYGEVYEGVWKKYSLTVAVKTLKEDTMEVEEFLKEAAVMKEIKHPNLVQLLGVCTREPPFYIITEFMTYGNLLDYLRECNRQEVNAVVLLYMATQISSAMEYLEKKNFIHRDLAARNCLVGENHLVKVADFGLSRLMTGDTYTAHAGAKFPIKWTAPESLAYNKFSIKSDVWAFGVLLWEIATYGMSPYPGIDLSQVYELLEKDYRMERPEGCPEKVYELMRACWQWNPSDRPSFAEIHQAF
Description: The His-tagged kinase domain of c-Abl is cloned and expressed in the baculovirus/Sf9 system as described by Bhat et al. in J. Biol. Chem. 1997; 272:16170-16175. A protein of 37 kD (c-Abl kinase) is purified by a two-step procedure over a Cobalt metal chelate column followed by an anion exchange column with a yield of 1-2 mg/L of Sf9 cells (Bhat et al., reference cited). The purity of the c-Abl kinase is >90% as judged by SDS-PAGE after Coomassie blue staining. The assay contains (total volume of 30 μL): c-Abl kinase (50 ng), 20 mM Tris.HCl, pH 7.5, 10 mM MgCl2, 10 μM Na3VO4, 1 mM DTT and 0.06 μCi/assay [γ^33 P]-ATP (5 μM ATP) using 30 μg/mL poly-Ala,Glu,Lys,Tyr-6:2:5:1 (Poly-AEKY, Sigma P1152) in the presence of 1% DMSO. Reactions are terminated by adding 10 μL of 250 mM EDTA and 30 μL of the reaction mixture is transferred onto Immobilon-PVDF membrane (Millipore, Bedford, Mass., USA) previously soaked for 5 min with methanol, rinsed with water, then soaked for 5 min with 0.5% H3PO4 and mounted on vacuum manifold with disconnected vacuum source. After spotting all samples, vacuum is connected and each well rinsed with 200 μL 0.5% H3PO4. Membranes are removed and washed on a shaker with 0.5% H3PO4 (4 times) and once with ethanol. Membranes are counted after drying at ambient temperature, mounting in Packard TopCount 96-well frame, and addition of 10 μL/well of Microscint™ (Packard).

human RET = target: T2, human RET (Homo sapiens, UniProt P07949); assay: RET kinase inhibition, GST-wtRET or GST-RET-Men2B, 33P incorporation into poly(Glu,Tyr); assay type: biochemical; settings: Table 4
T2 construct: fused on or other part: N-terminal GST tag (pFB-GSTX3 vector)
T2 sequence (P07949 1-1072 isoform P07949-2): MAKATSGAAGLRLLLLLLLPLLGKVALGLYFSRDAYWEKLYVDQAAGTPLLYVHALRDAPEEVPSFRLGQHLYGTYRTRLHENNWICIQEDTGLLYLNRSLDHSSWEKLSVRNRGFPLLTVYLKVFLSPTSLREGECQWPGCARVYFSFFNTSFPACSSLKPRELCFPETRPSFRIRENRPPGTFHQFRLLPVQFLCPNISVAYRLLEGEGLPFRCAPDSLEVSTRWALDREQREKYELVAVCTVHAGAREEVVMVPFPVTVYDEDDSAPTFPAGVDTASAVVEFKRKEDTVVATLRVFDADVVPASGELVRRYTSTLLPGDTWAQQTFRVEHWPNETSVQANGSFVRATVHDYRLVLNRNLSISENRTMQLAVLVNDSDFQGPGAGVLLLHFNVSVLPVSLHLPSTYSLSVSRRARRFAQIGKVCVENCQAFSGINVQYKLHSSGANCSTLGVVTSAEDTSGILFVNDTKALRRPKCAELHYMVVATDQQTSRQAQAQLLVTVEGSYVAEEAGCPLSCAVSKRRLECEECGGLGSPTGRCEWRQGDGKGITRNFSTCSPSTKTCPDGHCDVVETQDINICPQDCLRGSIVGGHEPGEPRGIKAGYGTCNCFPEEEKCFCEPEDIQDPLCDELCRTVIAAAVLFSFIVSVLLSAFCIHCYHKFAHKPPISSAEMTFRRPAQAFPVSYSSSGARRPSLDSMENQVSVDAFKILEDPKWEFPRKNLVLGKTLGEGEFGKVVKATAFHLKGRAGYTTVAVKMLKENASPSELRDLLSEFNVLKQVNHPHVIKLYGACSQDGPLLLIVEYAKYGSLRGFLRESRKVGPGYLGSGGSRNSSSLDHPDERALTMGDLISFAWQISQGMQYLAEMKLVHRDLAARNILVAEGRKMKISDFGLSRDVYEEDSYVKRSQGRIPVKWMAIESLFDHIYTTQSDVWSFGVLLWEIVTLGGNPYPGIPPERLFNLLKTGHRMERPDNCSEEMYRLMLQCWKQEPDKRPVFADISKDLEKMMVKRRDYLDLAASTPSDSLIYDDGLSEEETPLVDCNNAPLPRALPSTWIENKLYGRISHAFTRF
Description: The inhibition of RET is measured as follows: The baculovirus donor vector pFB-GSTX3 is used to generate a recombinant baculovirus that expresses the amino acid region 658-1072 (Swiss prot No. Q9BTB0) of the intra-cytoplasmic kinase domain of human RET-Men2A which corresponds to the wild-type kinase domain of RET (wtRET) and RET-Men2B, which differs from the wtRET by the activating mutation in the activation loop M918T. The coding sequences for the cytoplasmic domain of wtRET and RET-Men2B are amplified by PCR from the plasmids pBABEpuro RET-Men2A and pBABEpuro RET-Men2B. The amplified DNA fragments and the pFB-GSTX3 vector are made compatible for ligation by digestion with SalI and KpnI. Ligation of these DNA fragments results in the baculovirus donor plasmid pFB-GX3-RET-Men2A and pFB-GX3-RET-Men2B, respectively. Production of virus: Transfer vectors containing the kinase domains are transfected into the DH10Bac cell line (GIBCO) and plated on selective agar plates. Colonies without insertion of the fusion sequence into the viral genome (carried by the bacteria) are blue. Single, white colonies are picked and viral DNA (bacmid) are isolated from the bacteria by standard plasmid purification procedures. Sf9 cells or Sf21 (American Type Culture Collection) cells are then transfected in 25 cm^2 flasks with the viral DNA using Cellfectin reagent. Determination of small scale protein expression in Sf9 cells: Virus-containing media is collected from the transfected cell culture and used for infection to increase its titer. Virus-containing media obtained after two rounds of infection is used for large-scale protein expression. For large-scale protein expression 100 cm^2 round tissue culture plates are seeded with 5×10^7 cells/plate and infected with 1 mL of virus-containing media (approximately 5 MOIs). After 3 days, the cells are scraped off the plate and centrifuged at 500 rpm for 5 minutes. Cell pellets from 10-20, 100 cm^2 plates, are re-suspended in 50 mL of ice-cold lysis buffer (25 mM tris-HCl, pH 7.5, 2 mM EDTA, 1% NP-40, 1 mM DTT, 1 mM P MSF). The cells are stirred on ice for 15 minutes and then centrifuged at 5,000 rpms for 20 minutes. Purification of GST-tagged proteins: The centrifuged cell lysate is loaded onto a 2 mL glutathione-sepharose column (Pharmacia) and is washed 3× with 10 mL of 25 mM tris-HCl, pH 7.5, 2 mM EDTA, 1 mM DTT, 200 mM NaCl. The GST-tagged proteins are then eluted by 10 applications (1 mL each) of 25 mM tris-HCl, pH 7.5, 10 mM reduced-glutathione, 100 mM NaCl, 1 mM DTT, 10% glycerol and stored at −70° C. Measure of enzyme activity: Tyrosine protein kinase assays with either purified GST-wtRET or GST-RET-Men2B protein are carried out in a final volume of 30 μL containing 15 ng of either GST-wtRET or GST-RET-Men2B protein, 20 mM tris-HCl, pH 7.5, 1 mM MnCl2, 10 mM MgCl2, 1 mM DTT, 3 μg/mL poly(Glu,Tyr) 4:1, 1% DMSO, 2.0 μM ATP (γ-[^33P]-ATP 0.1 μCi). The activity is assayed in the presence or absence of inhibitors, by measuring the incorporation of ^33P from [γ^33P] ATP into poly(Glu,Tyr) 4:1. The assay is carried out in 96-well plates at ambient temperature for 15 minutes under conditions described below and terminated by the addition of 20 μL of 125 mM EDTA. Subsequently, 40 μL of the reaction mixture are transferred onto Immobilon-PVDF membrane (Millipore) previously soaked for 5 minutes with methanol, rinsed with water, then soaked for 5 minutes with 0.5% H3PO4 and mounted on vacuum manifold with disconnected vacuum source. After spotting all samples, vacuum is connected and each well-rinsed with 200 μL 0.5% H3PO4. Membranes are removed and washed 4× on a shaker with 1.0% H3PO4, once with ethanol. Membranes are counted after drying at ambient temperature, mounting in Packard TopCount 96-well frame, and addition of 10 μL/well of Microscint™ (Packard). IC50 values are calculated by linear regression analysis of the percentage inhibition of each compound in duplicate, at 4 concentrations (usually 0.01, 0.1, 1 and 10 μM). […]

Cdk1/cycB = Cdk1/cycB (UniProt P06493); assay: Cdk1/cycB kinase assay, histone H1 substrate; assay type: biochemical, starfish; settings: Table 4; read-out: Cdk1, activity (IC50 for kinase inhibition)
Description: The inhibition of Cdk1 can be determined as follows: Cdk1/cycB: Cdk1/cycB are obtained from ProQinase, Freiburg, Germany. Starfish oocytes are induced to enter M phase of the cell cycle with 10 μM 1-methyladenine and frozen in liquid nitrogen and stored at −80° C. […] Briefly, the supernatant from oocytes is equilibrated for 30 min at 4° C. under constant rotation with the p9^CKShs-sepharose beads. The beads are extensively washed and active cdk1/cycB kinase is eluted with purified p9^CKShs (3 mg/ml). […] The assay is carried with slight modifications in 96-well plates at ambient temperature for 20 min. […] The reaction is terminated by addition of 25 μl 0.05 M EDTA pH 7.0. An aliquot of 40 μl is spotted with a multichannel dispenser on Immobilon P membranes mounted in a Millipore Microtiter filter manifold connected to a low vacuum source. After elimination of liquid, the membrane is transferred to a sequence of 4 washing baths containing 0.5% H3PO4 and one with EtOH (shaking incubation for 10 min each), dried, mounted onto a Hewlett Packard TopCount manifold added 10 μl Microscint® and counted. […] Cells were seeded at 2.5×10^7 cells per 150 mm dish and allowed to attach to a 150 mm dish for 1 hr at RT. Media (SF900II containing 10% FBS) is aspirated and recombinant baculovirus; GST-C-Raf-1, v-Ras and v-Src are added at MOI of 3.0, 2.5 and 2.5 receptively in a total volume of 4-5 mL. Cells are incubated for 1 hr at RT and then 15 mL of medium is added. Infected cells are incubated for 48-72 hr at 27° C. Infected Sf21 cells are scraped and collected into a 50 mL tube and centrifuged for 10 min at 4° C. at 1100 g in a Sorvall centrifuge. The cell pellet is washed once with ice cold PBS and lysed with 0.6 mL lysis buffer per 2.5×10^7 cells. Complete lysis of cells is achieved after 10 min on ice with occasional pipetting. […] GST-c-Raf-1 was allowed to bind to the beads at 4° C. for 1 hr with rocking. Bound GST-c-Raf-1 with beads was transferred to a column. The column is washed once with lysis buffer and twice with ice cold Tris buffered saline. Ice cold elution buffer is added and column flow is stopped to allow the free glutathione to disrupt the interaction of GST-c-Raf-1 with glutathione sepharose beads. Fractions (1 mL) are collected into pre-chilled tubes. Each tube contains 10% glycerol (final concentration) to maintain kinase activity during freeze thaw cycles. Purified fractions of GST-c-Raf-1 kinase protein are stored at −80° C.

[1] = target: T3, human insulin receptor (Ins-R) (Homo sapiens, UniProt P06213); assay: Ins-R tyrosine kinase assay, GST-Ins-R; assay type: biochemical; settings: Table 4; read-out: Ins-R, activity (IC50 for kinase inhibition)
T3 construct: encoding the amino acid region 919-1343 of the intra-cytoplasmic kinase domain of the human insulin receptor; made in house; host or cells: baculovirus (Bac-to-Bac)
T3 sequence (P06213 958-1382 limits assumed): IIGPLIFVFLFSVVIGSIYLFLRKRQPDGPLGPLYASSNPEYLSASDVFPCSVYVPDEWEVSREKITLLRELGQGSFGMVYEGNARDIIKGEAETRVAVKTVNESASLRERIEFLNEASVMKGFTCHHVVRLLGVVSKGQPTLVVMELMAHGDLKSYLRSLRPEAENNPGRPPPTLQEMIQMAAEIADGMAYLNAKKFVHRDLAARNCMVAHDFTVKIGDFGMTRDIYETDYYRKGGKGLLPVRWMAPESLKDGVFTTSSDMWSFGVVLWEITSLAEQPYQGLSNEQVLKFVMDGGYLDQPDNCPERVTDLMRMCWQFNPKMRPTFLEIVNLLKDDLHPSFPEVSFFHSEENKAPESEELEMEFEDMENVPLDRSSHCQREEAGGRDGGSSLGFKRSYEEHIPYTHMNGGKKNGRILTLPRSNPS
Source text: The inhibition of IGF-1R and Ins-R can be determined as follows: The baculovirus donor vector pfbgx3IGFIRcd is used to generate a recombinant baculovirus that expresses the amino acid region 950-1337 of the mature peptide cytoplasmic domain of the human IGF-IR. To generate the cDNA fragment encoding the amino acid region 919-1343 of the intra-cytoplasmic kinase domain of the human insulin receptor, pC5hInsR is used. The fragments of the human IGF-IR and Ins-R are cloned, expressed and small-scale purified as a factor Xa-cleavable glutathione-S-transferase (GST)-fusion protein using the Bac-to-Bac™ system (GIBCO BRL) of recombinant baculovirus generation. Virus containing media is collected from the transfected cell culture and used for infection to increase its titer. Virus containing media obtained after two rounds of infection is used for large-scale protein expression. Cell extracts are prepared and loaded onto a glutathione-Sepharose (Pharmacia) column. After washing, the GST-tagged proteins are then eluted with a glutathione-containing buffer. Purified protein is stored at −70° C. in elution buffer. Tyrosine protein kinase assays with purified GST-IGF-1R and GST-ins-R are carried in a final volume of 30 μl containing 20 mM Tris-HCl, pH 7.6, 10 mM MgCl2, 0.01 mM Na3VO4, 1% DMSO, 1 mM DTT, 3 μg/ml poly(Glu,Tyr) 4:1 and 10 μM ATP (γ-[^33P]-ATP 0.1 μCi). The assay is performed in 96-well plates at ambient temperature for 20 min and terminated by addition of 25 μl 0.05 M EDTA pH 7.0. An aliquot of 40 μl is spotted with a multichannel dispenser on Whatman P81 membranes mounted in a Millipore Microtiter filter manifold connected to a low vacuum source. After elimination of liquid, the membrane is transferred to a sequence of 4 washing baths containing 0.5% H3PO4 and one with EtOH (shaking incubation for 10 min each), dried, mounted onto a Hewlett Packard TopCount manifold added 10 μl Microscint® and counted. Compounds of formula (I) show up to 90% inhibition of Ins-R at 10,000 nM, preferably between 60-90% inhibition. The inhibition of Tek can be determined as follows: The procedure of the expression, purification and assay these kinases has been described. Fabbro et al., Pharmacol. Ther. 82(2-3) 293-301 (1999). In brief, the glutathione S-transferase (GST) gene from the pAcG1 vector (Pharmingen) is excised with EcoRV and EcoRI and inserted into the cloning site of the Fast-Bac baculoviral vector (GIBCO) creating a 5530 bp vector with N-terminal cloning sites derived from the pAcG1 fusion vector (FBG0). The C-terminal cloning site may be any cloning site (from the Fast-Bac vector) downstream of the N-terminal cloning site used. N-terminally GST-fused (pAcG1, Pharmingen) KDR, Flt-1, Flk-1, Tek and PDGFR-β kinase domains are obtained from ProQinase, Freiburg, Germany. Tek is recloned into the FBG1 vector by EcoRI excision and ligation into EcoRI digested FBG1 (FBG1-Tek). The coding sequences for the whole cytoplasmic domain of c-Kit (aa 544-976) and c-Fms (aa 538-972) are amplified by PCR from human uterus and from human bone marrow cDNA libraries (Clontech), respectively. The amplified DNA fragments are fused to GST by cloning them into FBG1 as BamHI-EcoRI insertions, to yield FBG1-c-Kit and FBG1-c-Fms. Tek is recloned into the FBG0 transfer vector by EcoRI excision and ligation into EcoRI digested FBG0 (FBG-Tie2/Tek). FGFR-1 and c-met kinase domains are obtained by PCR from human A431 cells. N-terminal primers contain an overhanging EcoRI site, while C-terminal primers contain a XhoI site to aid cloning into the transfer vectors. After digestion of both the PCR fragments and FBG0 the cleavage products are gel-purified and ligated together to form the kinase constructs (FBG-Met, FBG-FGFR-1).

Row | IC50 (Cdk1/cycB) [µM] | IC50 [1] [µM] | Compound | IC50 (c-Abl kinase) [µM] | IC50 (human RET) [µM]
1 |  |  | CN1CCN(c2ccc(-c3cnn4c(N)c(-c5ccc(O)cc5)cnc34)cc2)CC1 [Example 35, 4-{7-Amino-3-[4-(4-methyl-piperazin-1-yl)-phenyl]-pyrazolo[1,5-a]pyrimidin-6-yl}-phenol] | < 10 | < 10
2 | < 10 | < 10 | Nc1cc(-c2ccccc2)nc2c(Br)cnn12 [Example 18, 3-Bromo-5-phenyl-pyrazolo[1,5-a]pyrimidin-7-ylamine] |  | 
3 |  |  | Cc1nn2c(N)c(-c3cccc(O)c3)cnc2c1-c1ccc(N2CCN(C)CC2)cc1 [Example 61a, 3-{7-Amino-2-methyl-3-[4-(4-methyl-piperazin-1-yl)phenyl]-pyrazolo[1,5-a]pyrimidin-6-yl}-phenol] |  | < 10
